From patent US6743798B1, “Substituted pyrazole derivatives condensed with six-membered heterocyclic rings” (Bayer Aktiengesellschaft, priority 1998, dated 2004)
Read-outs that look alike come from different tables or passages of the source.

How the values were obtained:
[1] = system: soluble guanylate cyclase; test: Stimulation of soluble guanylate cyclase in primary endothelial cells; format: cell-based, pig; conditions: for Increase in the cGMP concentration (%): test substances final concentration 1 μM, 10 minutes, primary endothelial cells from pig aortas
Method: Primary endothelial cells were isolated from pig aortas by treatment with collagenase soln. The cells were then cultured in culture medium at 37 °C/5% CO2 until confluence was reached. For the investigations, the cells were passaged, inoculated into 24-well cell culture plates and subcultured until reaching confluence (˜2×10^5 cells/well). For the stimulation of endothelial guanylate cyclase, the culture medium was aspirated and the cells were washed once with Ringer solution. After removing the Ringer solution, the cells were incubated for 10 minutes at 37° C./5% CO2 in stimulation buffer with or without NO donor (sodium nitroprusside, SNP or DEA/NO 1 μM). […] After the incubation time had ended, the buffer solution was aspirated and cold buffer at 4° C. was added to the cells. The cells were then lysed at −20° C. for 16 hours. The supernatants containing the intracellular cGMP were then removed and the cGMP concentration was determined by means of the cGMP-SPA system (Amersham Buchler, Brunswick).

[2] = system: rabbit aortal rings preconcentrated with phenylephrine; test: Vasorelaxant action in vitro; format: cell-based; conditions: Oryctolagus cuniculus, read-out: IC50 [μM] vasorelaxant action
Method: (§1) To determine the cardiovascular action, the following investigations were carried out: In in vitro investigations on the isolated and on cells of vascular origin, the effect on guanylate cyclase-dependent cGMP formation was tested with and without NO donor. The anti-aggregatory properties were shown on human platelets stimulated with collagen. The vasorelaxant action was determined in rabbit aortal rings preconcentrated with phenylephrine. The hypotensive action was investigated in anaesthetized and awake rats.
Rabbits are anaesthetized by a blow to the neck and exanguinated. The aorta is removed, freed from adhering tissue, divided into 1.5 mm wide rings and individually transferred under a pretension into 5 ml organ baths containing a warm, carbogen-aerated Krebs-Henseleit solution at 37° C. of the following composition (mM): NaCl: 119; KCl: 4.8; CaCl2×2H2O: 1; MgSO4×7H2O; 1.4; KH2PO4: 1.2; NaHCO3: 25; glucose: 10. The contractility is detected using Statham UC2 cells, amplified and digitalized by means of A/D converters (DAS-1802 HC, Keithley Instruments Munich), and recorded in parallel on linear recorders. To produce a contraction, phenylephrin is added to the bath cumulatively in increasing concentration. […]

[3] = system: anaesthetized rats; test: Blood pressure measurements in anaesthetized rats; format: in vivo, rat
Method: Male Wister rats having a bodyweight of 300-350 g are anaesthetized with Thiopental (100 mg/kg i.p.). After tracheotomy, a catheter is inserted into the femoral artery for blood pressure measurement. The substances to be tested are administered orally in Transcutol, Cremophor EL, H2O (10%/20%/70%) in a volume of 1 ml/kg.

[4] = system: human platelets stimulated with collagen; test: Inhibition of platelet aggregation in vitro; format: cell-based; conditions: 10 min, collagen-induced aggregation, 10 min incubation at 37° C.
Method: as §1
To determine the platelet-aggregation, blood from healthy volunteers of both sexes was used. As an anticoagulant, 9 parts of blood were admixed to one part of 3.8% strength sodium citrate solution. The blood was centrifuged at 900 rpm for 20 min. The pH of the platelet-rich plasma obtained was adjusted to pH 6.5 using ACD solution (sodium citrate/citric acid/glucose). The platelets were subsequently centrifuged off and resuspended in buffer and once more centrifuged off. The platelet pellet was suspended in buffer and mixed with an additional 2 mmol/l of CaCl2.
To measure the aggregation, aliquots of the platelet suspension were incubated with the substance to be tested at 37° C. for 10 min.

Compound: CS(=O)(=O)c1cnc(-c2nn(Cc3ccccc3F)c3ncccc23)nc1N [Example 1, 3-(4-Amino-5-methylsulphonylpyrimidin-2-yl)-1-(2-fluorobenzyl)-1H-pyrazolo[3,4-b]pyridine]
- Increase in the cGMP concentration (%) [1]: >1000%
- IC50 ([2]; rabbit aorta rings, phenylephrin contraction reduced by 50%): 0.23 µM

Compound: NC(=O)c1cnc(-c2nn(Cc3ccccc3F)c3ncccc23)nc1N [Example 6]
- Increase in the cGMP concentration (%) [1]: 600%
- melting point: 215 °C

Compound: Nc1nc(-c2nn(Cc3ccccc3F)c3ncccc23)ncc1CC(F)(F)F [Example 8]
- melting point: 181 °C

Compound: Cc1ccc(-c2nc(-c3nn(Cc4ccccc4F)c4ncccc34)ncc2C#N)cc1 [Example 14, 3-[5-Cyano-4-(4-methylphenyl)pyrimidin-2-yl]-1-(2-fluorobenzyl)-1H-pyrazolo[3,4-b]pyridine]
- Increase in the cGMP concentration (%) [1]: >1000%

Compound: Nc1nc(-c2nn(Cc3ccccc3F)c3ncccc23)nc(N)c1N1CCOCC1 [Example 16, 3-(4,6-Diamino-5-N-morpholinopyrimidin-2-yl)-1-(2-fluorobenzyl)-1H-pyrazolo[3,4-b]pyridine]
- max. reduction in blood pressure (mm Hg) ([3]; 0.3 mg/kg p.o.): 21 mm Hg
- max. reduction in blood pressure (mm Hg) ([3]; 1.0 mg/kg p.o.): 35 mm Hg
- cGMP (pmol/well) ([1]; Ex. 16 0.1 μM): 5.1 pmol/well
- cGMP (pmol/well) ([1]; Ex. 16 0.3 μM): 13.2 pmol/well
- cGMP (pmol/well) ([1]; Ex. 16 1.0 μM): 20.8 pmol/well
- cGMP (pmol/well) ([1]; Ex. 16 3.0 μM): 34.5 pmol/well
- cGMP (pmol/well) ([1]; Ex. 16 10 μM): 47.7 pmol/well
- IC50 [4]: 0.06 µM
- IC50 [2]: 0.2 µM
